Read-outs that look alike come from different tables or passages of the source.
Tests used:
lambsquarters = assay: Test B pre-/postemergence herbicide test; type: in vivo, Chenopodium album; conditions: Chenopodium album, post-emergence, 336 h, postemergence, read-out: Lambsquarters plant response rating
Outline: (§1)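 Seeds were planted and treated preemergence with compounds formulated in a non-phytotoxic solvent mixture containing surfactant, while plants at the 1- to 4-leaf stage (2 to 18 cm) received postemergence sprays. Flooded paddy plants were grown to the 2-leaf stage. After 13 to 15 days in a greenhouse, injury was visually rated 0–100 against untreated controls.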

pigweed = assay: Test B pre-/postemergence herbicide test; type: in vivo, Amaranthus retroflexus; conditions: Amaranthus retroflexus, 336 h; for pest or weed control at 125 g/ha: 125 g ai/ha
Outline: as §1

Surinam grass = assay: Test B pre-/postemergence herbicide test; type: in vivo, Urochloa decumbens; conditions: Urochloa decumbens; for pest or weed control at 125 g/ha: 125 g ai/ha; for pest or weed control at 500 g/ha: 500 g ai/ha
Outline: as §1

velvetleaf = assay: Test B pre-/postemergence herbicide test; type: in vivo, Abutilon theophrasti; conditions: Abutilon theophrasti, 336 h; for pest or weed control at 125 g/ha: 125 g ai/ha; for pest or weed control at 500 g/ha: 500 g ai/ha
Outline: as §1

ducksalad = assay: Test B flooded paddy test; type: in vivo, Heteranthera limosa; conditions: Heteranthera limosa, 336 h, 1000 g ai/ha, scale 0 to 100 (0 no effect, 100 complete control), read-out: Ducksalad plant response rating
Outline: (§2)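 Treated at 2-leaf (paddy) or 1–4-leaf, 2–18 cm (postemergence); greenhouse 13–15 d; visual score vs control, 0 none to 100 complete control; dash = not tested.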

blackgrass = assay: Test B postemergence herbicide test; type: in vivo, Alopecurus myosuroides; conditions: Alopecurus myosuroides, post-emergence, 336 h, postemergence, visual rating, scale 0 (no effect) to 100 (complete control), read-out: Blackgrass plant response rating
Outline: as §2

[1] = system: small flower umbrella sedge; assay: Test B flooded paddy test; type: in vivo, Cyperus difformis; conditions: Cyperus difformis, 336 h, 1000 g ai/ha, scale 0 to 100 (0 no effect, 100 complete control), read-out: Sedge, Umbrella plant response rating
Outline: as §2

corn = assay: Test B pre-/postemergence herbicide test; type: in vivo, Zea mays; conditions: Zea mays
Outline: as §1

wild oat = assay: Test B postemergence herbicide test; type: in vivo, Avena fatua; conditions: Avena fatua, post-emergence, 336 h, postemergence, read-out: Oat, Wild plant response rating
Outline: as §2

rice = assay: Test B flooded paddy test; type: in vivo, Oryza sativa; conditions: Oryza sativa, 336 h, 1000 g ai/ha, scale 0 to 100 (0 no effect, 100 complete control), read-out: Rice plant response rating
Outline: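 Visual ratings, 0 (no effect) to 100 (complete control), made versus controls after 13–15 d greenhouse. Paddy plants treated at 2-leaf stage; postemergence plants at 1- to 4-leaf stage, 2–18 cm tall.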

large crabgrass = assay: Test B pre-/postemergence herbicide test; type: in vivo, Digitaria sanguinalis; conditions: Digitaria sanguinalis; for pest or weed control at 125 g/ha: 125 g ai/ha; for pest or weed control at 500 g/ha: 500 g ai/ha
Outline: as §1

barnyardgrass = assay: Test B pre-/postemergence herbicide test; type: in vivo, Echinochloa crus-galli; conditions: Echinochloa crus-galli; for pest or weed control at 125 g/ha: 125 g ai/ha; for pest or weed control at 500 g/ha: 500 g ai/ha
Outline: (§3)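 Herbicidal effect was judged by eye on a 0–100 scale after plants stood 13 to 15 days in the greenhouse following pre- or postemergence treatment with surfactant-containing formulations.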

morningglory = assay: Test B pre-/postemergence herbicide test; type: in vivo, Ipomoea coccinea; conditions: Ipomoea, 336 h; for pest or weed control at 125 g/ha: 125 g ai/ha; for pest or weed control at 500 g/ha: 500 g ai/ha
Outline: as §3

cocklebur = assay: Test B pre-/postemergence herbicide test; type: in vivo, Xanthium strumarium; conditions: Xanthium strumarium; for pest or weed control at 125 g/ha: 125 g ai/ha; for pest or weed control at 500 g/ha: 500 g ai/ha
Outline: as §3

giant foxtail = assay: Test B pre-/postemergence herbicide test; type: in vivo, Setaria faberi; conditions: Setaria faberi, 336 h; for pest or weed control at 125 g/ha: 125 g ai/ha; for pest or weed control at 500 g/ha: 500 g ai/ha
Outline: as §1

[2] = 125 g ai/ha, visual rating, scale 0 (no effect) to 100 (complete control)
[3] = 500 g ai/ha, scale 0 to 100, 0 is no effect, 100 is complete control
[4] = post-emergence, postemergence, visual rating, scale 0 (no effect) to 100 (complete control), read-out: Barnyardgrass plant response rating
[5] = post-emergence, postemergence, visual rating, scale 0 (no effect) to 100 (complete control), read-out: Cocklebur plant response rating

SMILES: CCN(CC)C(=O)c1cncc(NC(=O)c2cc(C(C)(C)C)nn2CC)c1 [Compound 261, 5-[[[3-(1,1-dimethylethyl)-1-ethyl-1H-pyrazol-5-yl]carbonyl]amino]-N,N-diethyl-3-pyridinecarboxamide]
- pest or weed control at 125 g/ha (lambsquarters; [2]): 10%
- pest or weed control at 500 g/ha (lambsquarters; [3]): 60%
- pest or weed control at 125 g/ha (pigweed; post-emergence, postemergence, visual rating, scale 0 (no effect) to 100 (complete control), read-out: Pigweed plant response rating): 20%
- pest or weed control at 500 g/ha (pigweed; post-emergence, postemergence, 500 g ai/ha, scale 0 to 100, 0 is no effect, 100 is complete control, read-out: Pigweed plant response rating): 70%
- pest or weed control at 125 g/ha (pigweed; pre-emergence, 0 = no effect, 100 = complete control, read-out: Pigweed plant response rating (0 to 100 scale)): 0%
- pest or weed control at 125 g/ha (Surinam grass; post-emergence, postemergence, visual rating, scale 0 (no effect) to 100 (complete control), read-out: Surinam Grass plant response rating): 0%
- pest or weed control at 500 g/ha (Surinam grass; post-emergence, postemergence, scale 0 to 100, 0 is no effect, 100 is complete control, read-out: Surinam Grass plant response rating): 20%
- pest or weed control at 125 g/ha (Surinam grass; pre-emergence, 0 = no effect, 100 = complete control, read-out: Surinam Grass plant response rating (0 to 100 scale)): 0%
- pest or weed control at 500 g/ha (Surinam grass; pre-emergence, visual rating, 0 = no effect, 100 = complete control, read-out: Plant response rating, Surinam Grass): 0%
- pest or weed control at 125 g/ha (velvetleaf; post-emergence, postemergence, visual rating, scale 0 (no effect) to 100 (complete control), read-out: Velvetleaf plant response rating): 0%
- pest or weed control at 500 g/ha (velvetleaf; post-emergence, postemergence, scale 0 to 100, 0 is no effect, 100 is complete control, read-out: Velvetleaf plant response rating): 0%
- pest or weed control at 125 g/ha (velvetleaf; pre-emergence, 0 = no effect, 100 = complete control, read-out: Velvetleaf plant response rating (0 to 100 scale)): 0%
- pest or weed control at 500 g/ha (velvetleaf; pre-emergence, visual rating, 0 = no effect, 100 = complete control, read-out: Plant response rating, Velvetleaf): 20%
- pest or weed control at 1000 g/ha (ducksalad): 80%
- pest or weed control at 125 g/ha (blackgrass; 125 g ai/ha): 0%
- pest or weed control at 500 g/ha (blackgrass; 500 g ai/ha): 20%
- pest or weed control at 1000 g/ha [1]: 30%
- plant injury at 125 g/ha (corn; post-emergence, postemergence, 125 g ai/ha, visual rating, scale 0 (no effect) to 100 (complete control), read-out: Corn plant response rating): 10%
- plant injury at 500 g/ha (corn; post-emergence, postemergence, 500 g ai/ha, scale 0 to 100, 0 is no effect, 100 is complete control, read-out: Corn plant response rating): 20%
- Corn plant response rating (crop injury, 0 = no effect, 100 = complete kill) at 500 g/ha (corn; pre-emergence, 500 g ai/ha, visual rating, 0 = no effect, 100 = complete control): 0%
- pest or weed control at 125 g/ha (wild oat; [2]): 0%
- pest or weed control at 500 g/ha (wild oat; [3]): 20%
- plant injury at 1000 g/ha (rice): 60%
- pest or weed control at 125 g/ha (large crabgrass; post-emergence, postemergence, visual rating, scale 0 (no effect) to 100 (complete control), read-out: Crabgrass, Large plant response rating): 0%
- pest or weed control at 500 g/ha (large crabgrass; post-emergence, postemergence, scale 0 to 100, 0 is no effect, 100 is complete control, read-out: Crabgrass, Large plant response rating): 10%
- pest or weed control at 125 g/ha (large crabgrass; pre-emergence, 0 = no effect, 100 = complete control, read-out: Crabgrass, Large plant response rating (0 to 100 scale)): 50%
- pest or weed control at 500 g/ha (large crabgrass; pre-emergence, visual rating, 0 = no effect, 100 = complete control, read-out: Plant response rating, Crabgrass, Large): 50%
- pest or weed control at 125 g/ha (barnyardgrass; [4]): 0%
- pest or weed control at 500 g/ha (barnyardgrass; [4]): 0%
- pest or weed control at 125 g/ha (barnyardgrass; pre-emergence, 0 = no effect, 100 = complete control, read-out: Barnyardgrass plant response rating (0 to 100 scale)): 0%
- pest or weed control at 500 g/ha (barnyardgrass; pre-emergence, visual rating, 0 = no effect, 100 = complete control, read-out: Plant response rating, Barnyardgrass): 20%
- pest or weed control at 125 g/ha (morningglory; post-emergence, postemergence, visual rating, scale 0 (no effect) to 100 (complete control), read-out: Morningglory plant response rating): 0%
- pest or weed control at 500 g/ha (morningglory; post-emergence, postemergence, scale 0 to 100, 0 is no effect, 100 is complete control, read-out: Morningglory plant response rating): 0%
- pest or weed control at 125 g/ha (morningglory; pre-emergence, 0 = no effect, 100 = complete control, read-out: Morningglory plant response rating (0 to 100 scale)): 0%
- pest or weed control at 500 g/ha (morningglory; pre-emergence, visual rating, 0 = no effect, 100 = complete control, read-out: Plant response rating, Morningglory): 0%
- pest or weed control at 125 g/ha (cocklebur; [5]): 0%
- pest or weed control at 500 g/ha (cocklebur; [5]): 10%
- pest or weed control at 125 g/ha (cocklebur; pre-emergence, 0 = no effect, 100 = complete control, read-out: Cocklebur plant response rating (0 to 100 scale)): 0%
- pest or weed control at 500 g/ha (cocklebur; pre-emergence, visual rating, 0 = no effect, 100 = complete control, read-out: Plant response rating, Cocklebur): 0%
- pest or weed control at 125 g/ha (giant foxtail; post-emergence, postemergence, visual rating, scale 0 (no effect) to 100 (complete control), read-out: Foxtail, Giant plant response rating): 0%
- pest or weed control at 500 g/ha (giant foxtail; post-emergence, postemergence, scale 0 to 100, 0 is no effect, 100 is complete control, read-out: Foxtail, Giant plant response rating): 0%
- pest or weed control at 125 g/ha (giant foxtail; pre-emergence, 0 = no effect, 100 = complete control, read-out: Foxtail, Giant plant response rating (0 to 100 scale)): 0%
- pest or weed control at 500 g/ha (giant foxtail; pre-emergence, visual rating, 0 = no effect, 100 = complete control, read-out: Plant response rating, Foxtail, Giant): 0%
